The results in this text go back to ChEMBL document CHEMBL1128496, “Anti-AIDS (acquired immune deficiency syndrome) agents. 17. New brominated hexahydroxybiphenyl derivatives as potent anti-HIV agents” (J Med Chem, 1995).

Data set [1] is described as follows: Anti-HIV activity was evaluated by measuring the growth inhibition of acutely infected H9 lymphocytes as EC50. It counts as functional. To be noted: Human immunodeficiency virus 1.
A short description of data set [2]: Anti-HIV activity evaluated by measuring the growth inhibition of acutely infected H9 lymphocytes as therapeutic index. The note with it: for selectivity ratio: human immunodeficiency virus 1, H9 lymphocytes acutely infected with HIV-1, read-out: TI; for TI: Human immunodeficiency virus 1. Details: species or system Human immunodeficiency virus 1.
A short description of data set [3]: Anti-HIV activity was evaluated by measuring the growth inhibition of acutely infected H9 lymphocytes as IC50. The note with it: Human immunodeficiency virus 1. The format is functional.
Data set [4] has as its system H9. Description: Anti-HIV activity of compound was evaluated by measuring the growth inhibition of acutely infected H9 lymphocytes as IC50. It counts as functional, Homo sapiens.
Data set [5] is described as follows: Effect against HIV-1 expression in a chronically infected human T cell line ACH-2. It counts as functional, Human immunodeficiency virus 1.
A short description of data set [6]: Effect against HIV-1 expression in a chronically infected human T cell line ACH-2i n the presence of PMA(phorbol 12-myristate 13-acetate). It counts as functional, Human immunodeficiency virus 1.
The test system of data set [7] is H9. Description: Anti-HIV activity of compound was evaluated by measuring the growth inhibition of acutely infected H9 lymphocytes. It counts as functional, cell-based. The note with it: Homo sapiens.
Data set [8] in a line: Effect against HIV-1 chronically infected promonocytic cell line U1 in the presence of PMA(phorbol 12-myristate 13-acetate). The format is functional, Human immunodeficiency virus 1.
Data set [9] can be described thus: Effect against HIV-1 chronically infected promonocytic cell line U1. It counts as functional, Human immunodeficiency virus 1.
Data set [10] is described as follows: Effect against HIV-1 expression in a chronically infected human T cell line ACH-2 in the presence of PMA(phorbol 12-myristate 13-acetate). The format is functional, Human immunodeficiency virus 1.
Data set [11] relates to ACH-2 cell line. The data set is described as follows: Effect against HIV-1 chronically infected […] cell line ACH-2 cells. It counts as functional, Homo sapiens.
The subject of data set [12] is ACH-2 cell line. The data set is described as follows: Effect against HIV-1 chronically infected […] cell line ACH-2 cells in the presence of PMA(phorbol 12-myristate 13-acetate). The format is functional, Homo sapiens.

Each structure is given as a SMILES string. In brackets after ≈: the same amount, converted by molar mass. Several values for one entry are separate records, joined by “and”; a condition that tells them apart may be missing. Identical values can stand only once. Where only a bound is given, the exact number is not on record here.

Usually EC50 stands for the concentration needed to bring the measured effect to its halfway point. A word on the IC50: it is the concentration that inhibits the measured activity by half. The molecule `COc1c(Br)c(C(=O)O)c(-c2c3c(c(OC)c(Br)c2C(=O)NCCN2CCNCC2)OCO3)c2c1OCO2` gave an EC50 in [1] of 30 µg/mL (≈ 45.5 µM). The selectivity ratio in [2] was > 3.3. In addition, in data set [3], the half-maximal inhibitory concentration (IC50) was > 100 µg/mL.
In the case of `COc1c(Br)c(C(=O)[O-])c(-c2c3c(c(OC)c(Br)c2C(=O)[O-])OCO3)c2c1OCO2.[Na+].[Na+]`, the EC50 in [1] was > 100 µg/mL. In addition, the selectivity ratio in [2] was 1. The concentration for half-maximal inhibition (IC50) in data set [3] was > 100 µg/mL.
On to `COc1c(Br)c(C(=O)O)c(-c2c3c(c(OC)c(Br)c2C(=O)O)OCO3)c2c1OCO2`, for which the EC50 in data set [1] is > 100 µg/mL. The molecule further yielded a TI in data set [2] of 1. Further, in [3], the IC50 was > 100 µg/mL.
With `COc1c2c(c3c(c1Br)c(=O)oc(=O)c1c(Br)c(OC)c4c(c13)OCO4)OCO2`, in [4], the C50 was >100 µg/mL.
Turning to `COc1c(Br)c(C(=O)O)c(-c2c3c(c(OC)c(Br)c2C(=O)OCC[N+](C)(C)C)OCO3)c2c1OCO2.[Cl-]`, the EC50 in data set [1] is > 100 µg/mL. For the same molecule, in data set [2], the selectivity ratio was found to be 1. For the same molecule, the IC50 in data set [3] is > 100 µg/mL.
On to `CCOC(=O)c1c(Br)c(OC)c2c(c1-c1c3c(c(OC)c(Br)c1C(=O)[O-])OCO3)OCO2.[Na+]`, for which the IC50 in data set [3] was > 100 µg/mL.
On to `COC(=O)c1c(Br)c(OC)c2c(c1-c1c3c(c(OC)c(Br)c1C(=O)OC)OCO3)OCO2`, for which the p24 in [5] is 169 pg/mL and 141 pg/mL and 135 pg/mL and 142 pg/mL and 122 pg/mL and 123 pg/mL; in data set [6], 31590 pg/mL and 35635 pg/mL and 30426 pg/mL and 32768 pg/mL and 29173 pg/mL and 27699 pg/mL; in data set [8] it was 10131 pg/mL and 10598 pg/mL and 11482 pg/mL and 9850 pg/mL and 8320 pg/mL and 7590 pg/mL; in [9], 15 pg/mL and 16 pg/mL and 14 pg/mL and 13 pg/mL and 17 pg/mL. The same molecule came in with an EC50 in [7] of 0.23 µg/mL (≈ 0.399 µM). Also, the selectivity ratio in data set [2] was > 480.
Consider `COc1c(OC(=O)c2ccccc2)c(OC(=O)c2ccccc2)c(Br)c(CO)c1-c1c(CO)c(Br)c(OC(=O)c2ccccc2)c(OC(=O)c2ccccc2)c1OC`, for which the 50% effective concentration (EC50) in data set [1] is > 100 µg/mL. Moreover, the selectivity ratio in data set [2] turned out to be 1. Moreover, in data set [3], the IC50 is > 100 µg/mL.
In the case of `COC(=O)c1cc(OC(=O)c2ccccc2)c(OC(=O)c2ccccc2)c(OC)c1-c1c(OC)c(OC(=O)c2ccccc2)c(OC(=O)c2ccccc2)c(Br)c1C(=O)OC`, the EC50 in data set [1] is > 100 µg/mL. In addition, the selectivity ratio in [2] was 1. Also, in data set [3], the half-inhibitory concentration (IC50) is > 100 µg/mL.
Take `CCCCCCOC(=O)c1c(Br)c(OC)c2c(c1-c1c3c(c(OC)c(Br)c1C(=O)OCCCCCC)OCO3)OCO2`: it took 2 µg/mL (≈ 2.79 µM) to reach a half-maximal effect in data set [1] (EC50). In addition, in [2], the selectivity ratio is > 50. Moreover, in data set [3], the IC50 is > 100 µg/mL.
Regarding `COC(=O)c1cc(OC)c2c(c1-c1c3c(c(OC)c(Br)c1C(=O)OC)OCO3)OCO2`, the p24 in [5] is 148 pg ml-1 [middle of 6 runs]; in [6] it was 46208 pg/mL and 28634 pg/mL and 24832 pg/mL and 26957 pg/mL and 27699 pg/mL; in data set [10] it was 23373 pg/mL; in data set [8], 10746 pg/mL and 13376 pg/mL and 8774 pg/mL and 7616 pg/mL and 7200 pg/mL and 8314 pg/mL.
Take `COC(=O)c1c(Br)c(OC(=O)c2ccccc2)c(OC(=O)c2ccccc2)c(OC)c1-c1c(OC)c(OC(=O)c2ccccc2)c(OC(=O)c2ccccc2)c(Br)c1C(=O)OC`: in [1], the EC50 was > 100 µg/mL. In data set [2], the selectivity ratio was 1. The IC50 in [3] is > 100 µg/mL.
`COc1c(Br)c(C(=O)O)c(-c2c3c(c(OC)c(Br)c2C(=O)O)OCO3)c2c1OCO2.OCCN1CCCC1.OCCN1CCCC1` gave a concentration for a half-maximal effect (EC50) in [1] of 17 µg/mL. In data set [2], the TI is on record as < 1.2. In [3], the 50% inhibitory concentration (IC50) is > 20 µg/mL.
In data set [1], `CCOC(=O)c1c(Br)c(OC)c2c(c1-c1c3c(c(OC)c(Br)c1C(=O)O)OCO3)OCO2` gave an EC50 of 60 µg/mL (≈ 104 µM). The selectivity ratio in data set [2] was > 1.7. In addition, in [3], the half-inhibitory concentration (IC50) is > 100 µg/mL.
Taken in the same sequence, the figures for `COc1c(OC(=O)c2ccccc2)c(OC(=O)c2ccccc2)cc(CO)c1-c1c(CO)c(Br)c(OC(=O)c2ccccc2)c(OC(=O)c2ccccc2)c1OC` were 100 µg/mL (≈ 120 µM), > 1 and > 100 µg/mL.
The like results for `Br.COc1c(Br)c(C(=O)O)c(-c2c3c(c(OC)c(Br)c2C(=O)NCCN2CCCC2)OCO3)c2c1OCO2` were, in that order, > 100 µg/mL, 1 and > 100 µg/mL.
`COC(=O)c1cc(OC)c2c(c1-c1c(C(=O)OC)cc(OC)c3c1OCO3)OCO2` [BIFENDATE] displayed an EC50 in data set [1] of 5 µg/mL (≈ 12 µM). Moreover, the selectivity ratio in [2] is > 20. Also, the half-maximal inhibitory concentration (IC50) in [3] is > 100 µg/mL.
Consider `Cc1cn([C@H]2C[C@H](N=[N+]=[N-])[C@@H](CO)O2)c(=O)[nH]c1=O` [ZIDOVUDINE], for which the p24 in [11] is 167 pg ml-1 [middle of 4 runs]; in data set [12], 19814 pg/mL and 30758 pg/mL and 31808 pg/mL and 31360 pg/mL; in [8], 9338 pg/mL and 9299 pg/mL and 8218 pg/mL and 8070 pg/mL; in [9], 22 pg/mL and 13 pg/mL and 12 pg/mL and 18 pg/mL.
